In patent US20130150346A1, “Use of FAAH Inhibitors for Treating Parkinson's Disease and Restless Legs Syndrome” (Ironwood Pharmaceutical, Inc., priority 2010, published 2013):

Columns and labels:
[1] = system: MPTP-lesioned marmosets; experiment: Motor activity (passive infra-red sensors: total activity, high activity counts and time) in MPTP-lesioned marmosets; format: in vivo, common marmosets (Callithrix jacchus)
Procedure: (§1) Six common marmosets (Callithrix jacchus; female; weight, 350-500 g (Harlan, Madison, Wis., USA)) were kept under conditions of controlled temperature (25±2° C.) and a 12-hour light/dark cycle (lights on 6:30 a.m.). Animals were group housed and had access to food, fresh-fruit supplements and water ad libitum and their home cage environment was enriched with primate toys, perches and auditory stimuli. Prior to start of studies, animals were acclimatized to handling, blood collection and administration of treatments (oral syringe feeding and subcutaneous injection) as well as transfer to observation cages for assessment of behavior. A parkinsonian syndrome was induced by once-daily subcutaneous administration of MPTP hydrochloride (Sigma, Canada; 2 mg/kg base concentration in 0.9% saline) for 5 consecutive days. Following this, animals were allowed to recover for 12 weeks to allow parkinsonian symptoms to develop and stabilize. […] Treatment-related complications including dyskinesia and psychosis-like behaviors were evoked by twice-daily treatment with L-DOPA p.o. (as Prolopa®, Roche Canada, Ontario, equivalent to 15 mg/kg L-DOPA and 3.5 mg/kg benserazide) for a minimum of 30 days. […] Disord. 21:839-846; Visanji et al. (2008) Mov. Disord. 23:1922-1925; Visanji et al (2009) Neurobiol Dis. 35: 184-192]. After this time, the animals were used in several studies to evaluate potential anti-parkinsonian and anti-dyskinetic agents. A minimum period of two weeks was allowed between completing any prior study and commencing this study, a period in excess of ten half-lives since administration of any previously employed experimental drug. Throughout the course of the study, on days not requiring plasma sampling or behavioral observations, animals were treated once daily with oral L-DOPA therapy, given at 10:00 a.m. to maintain stable levels of complications. Marmosets treated with MPTP as described in this example are referred to as MPTP-lesioned marmosets.
(§2) To assess the effect of treatment on plasma FAAH substrate level, total activity, high activity time and count, data were analyzed using a parametric repeated-measures (RM) 1-way analysis of variance (ANOVA) followed by a Student Newman-Keuls Multiple Comparison post hoc test. To assess the effect of treatment on plasma L-DOPA level a paired, two-tailed t-test was used. All FAAH (AEA, OEA, PEA) subbstrate and L-DOPA plasma level data and activity data are presented as the group mean and SEM For measures of parkinsonian disability, dyskinesia and psychosis, data were analyzed via Friedman's test with Dunn's Multiple Comparison post hoc test. […] In all cases, p<0.05 was taken to represent a significant difference.
(§3) MPTP hydrochloride (Sigma, Canada) was dissolved in 0.9% NaCl sterile solution to a concentration of 0.2 mg/ml (freebase) and administered at 1 ml/kg. Maintenance L-DOPA, administered as Prolopa® capsules (Roche, Mississauga, ON, Canada) containing 50 mg L-DOPA and 12.5 mg benserazide (freebase) was dissolved in Gatorade sports beverage (The Gatorade Company, Chicago, Ill.) prior to oral administration by syringe at a volume of 10 ml/kg. On days of behavioral assessment, L-DOPA (20 mg/kg, freebase) was prepared from the methyl ester form (Sigma, Canada) in combination with benserazide hydrochloride (5 mg/kg, freebase, Sigma, Canada) dissolved in 0.9% sterile saline containing 0.1% ascorbate (Sigma, Canada) and 0.05% absolute ethanol. URB597 (Cayman Chemical, Ann Arbor, Mich.) was formulated in a vehicle containing 50% corn oil (Professional Compounding Centers of America (PCCA), Houston, Tex.) and 50% nutritional drink Ensure™ (Abbott Nutrition, Chicago, Ill.) to make the suspension palatable for marmoset oral dosing. Requisite amounts of URB597 were weighed into sterile 50 ml polypropylene tubes (for the 3, 10, 30 and 60 mg/kg doses, 12, 40, 120 and 240 mg were weighed respectively). Then, 10 ml Corn oil was added and mixed until homogenous.

[2] = system: MPTP-lesioned marmosets; experiment: Rating of parkinsonian disability, dyskinesia and psychosis in MPTP-lesioned marmosets; format: in vivo, common marmosets (Callithrix jacchus)
Procedure: as §1, §2, §3

[3] = URB597 10 mg/kg p.o. + L-DOPA 20 mg/kg s.c., 2-4 h, p<0.05
[4] = URB597 10 mg/kg p.o. + L-DOPA 20 mg/kg s.c., 2-4 h, p>0.05
[5] = URB597 10 mg/kg p.o. given alone (vehicle s.c.), p>0.05
[6] = URB597 10 mg/kg p.o. + L-DOPA 20 mg/kg s.c., 2-4 h, p>0.05 cf. L-DOPA alone

**Q.** For `NC(=O)c1cccc(-c2cccc(OC(=O)NC3CCCCC3)c2)c1` [URB597], which “reduction of L-DOPA-induced total activity compared to L-DOPA alone” value [1, 3] is on record?
**A.** 32%

**Q.** What about the “reduction of high activity counts evoked by L-DOPA” value [1, 3] of the same compound?
**A.** 52%

**Q.** What about the “reduction of high activity time evoked by L-DOPA” value [1, 3] of the same compound?
**A.** 48%

**Q.** What about the “high activity counts and high activity time compared to normal, unlesioned animals” value [1, 4] of the same compound?
**A.** not significantly different

**Q.** And the “total activity relative to normal, un-lesioned animals” value [1, 4]?
**A.** 119 % of normal

**Q.** And the “time after which total activity counts were no longer significantly different compared to vehicle (s.c.)-treated animals” value ([1]; URB597 10 mg/kg p.o. + L-DOPA 20 mg/kg s.c., 6 h time course)?
**A.** 2.5 h

**Q.** What about the “effect on total activity and high activity cf. vehicle” value [1, 5] of the same compound?
**A.** did not modify

**Q.** And the total activity counts ([1]; URB597 10 mg/kg p.o. in combination with L-DOPA 20 mg/kg s.c., 2-4 h, mean±SEM, n=6)?
**A.** 1879±332 counts

**Q.** What about the level of psychosis ([2]; URB597 10 mg/kg p.o. + L-DOPA 20 mg/kg s.c., 2-4 h) of the same compound?
**A.** mild to moderate

**Q.** And the “effect of URB597 on L-DOPA-induced dyskinesia” value [2, 6]?
**A.** did not modify

**Q.** What about the “effect of URB597 on L-DOPA-induced psychosis” value [2, 6] of the same compound?
**A.** did not modify

**Q.** And the “effect of URB597 on anti-parkinsonian actions of L-DOPA” value [2, 6]?
**A.** did not modify

**Q.** And the “dyskinesia score (median)” value ([2]; URB597 10 mg/kg p.o. + L-DOPA 20 mg/kg s.c., summed 2-4 h, IQR 13-29, n=6)?
**A.** 18

**Q.** And the “parkinsonian disability score (median)” value ([2]; URB597 10 mg/kg p.o. + L-DOPA 20 mg/kg s.c., summed 2-4 h, maximum 432, IQR 65-114, n=6)?
**A.** 78

**Q.** And the “effect on parkinsonian disability, dyskinesia or psychosis cf. vehicle” value [2, 5]?
**A.** did not modify
